Experiments:
[1] = test system: Trichophyton mentagrophytes 445; assay: In vitro antifungal activity, MIC by microdilution (NCCLS M27-A); conditions: TM
Candida glabrata 20/l = assay: as above; conditions: CG
[2] = test system: Enterococcus sp. J 14365/08; assay: Screen against bacteria, MIC/IC80; type: cell-based; conditions: EF
[3] = test system: Pseudomonas aeruginosa CCM 1961; assay: Screen against bacteria, MIC/IC80; type: cell-based; conditions: PA
[4] = test system: Staphylococcus epidermidis H 6966/08; assay: Screen against bacteria, MIC/IC80; type: cell-based; conditions: SE
Candida krusei ATCC 6258 = assay: In vitro antifungal activity, MIC by microdilution (NCCLS M27-A)
[5] = test system: Candida albicans ATCC 44859; assay: as above
[6] = test system: Aspergillus fumigatus 231; assay: as above; conditions: AF
Candida tropicalis 156 = assay: as above; conditions: CT
[7] = test system: Staphylococcus aureus H 5996/08 Methiciline-resistant; assay: Screen against bacteria, MIC/IC80; type: cell-based; conditions: MRSA
Escherichia coli CCM4517 = assay: Screen against bacteria, MIC/IC80; type: cell-based; conditions: EC
[8] = test system: Candida parapsilosis ATCC 22019; assay: In vitro antifungal activity, MIC by microdilution (NCCLS M27-A); conditions: CP
Absidia corymbifera 272 = assay: as above; conditions: AC
[9] = test system: Klebsiella pneumoniae J 14368/08 ESBL-positive; assay: Screen against bacteria, MIC/IC80; type: cell-based; conditions: KP-E
[10] = test system: Klebsiella pneumoniae D 11750/08; assay: Screen against bacteria, MIC/IC80; type: cell-based; conditions: KP
[11] = test system: Staphylococcus aureus CCM 4516/08; assay: Screen against bacteria, MIC/IC80; type: cell-based; conditions: SA
Candida krusei E28 = assay: In vitro antifungal activity, MIC by microdilution (NCCLS M27-A)
[12] = test system: Candida albicans ATCC 90028; assay: as above
[13] = test system: Candida lusitaniae 2446/l; assay: as above; conditions: CL
Experimental: In vitro antifungal activities of the compounds were evaluated on the collection of fungal strains deposited at the Department of Biological and Medical Sciences, Faculty of Pharmacy, Charles University, Czech Republic. All the isolates were maintained on Sabouraud dextrose agar prior to being tested.
Minimum inhibitory concentrations (MICs) were determined by the microdilution format of the NCCLS M27-A guidelines. […] RPMI 1640 (Sevapharma, Prague) medium supplemented with L-glutamine and buffered with 0.165 M morpholinepropanesulfonic acid to pH 7.0 was used as the test medium. The wells of the microdilution tray contained 100 μl of the RPMI 1640 medium with 2-fold serial dilutions of the compounds (1000 to 0.24 μmol/l for the new compounds) and 100 μl of inoculum suspension. Fungal inoculum in RPMI 1640 was prepared to give a final concentration of 5×103±0.2 cfu·ml-1. The trays were incubated at 35° C. and MICs were read visually for filamentous fungi and photometrically for yeasts as an optical density (OD) at 540 nm after 24 h and 48 h. The MICs were defined as 80% inhibition of the growth of control. MICs were determined twice and in duplicate. The deviations from the usually obtained were no higher than the nearest concentration value up and down the dilution scale.

Measured: MIC/IC80

CCOCCOC(=O)C(C)OC(=O)Cn1cc[n+](C)c1.[Br-] (stereo not drawn) [KG160, RS-3-methyl-1-[1-(ethoxyethoxycarbonyl)-1-methylmethoxycarbonylmethyl]imidazolium bromide]
>1000 µM: [1]; 72 h | [1]; 120 h | Candida glabrata 20/l; 24 h | Candida glabrata 20/l; 48 h | [2]; 24 h | [2]; 48 h | [3]; 24 h | [3]; 48 h | [4]; 24 h | [4]; 48 h | Candida krusei ATCC 6258; CK1, 24 h | Candida krusei ATCC 6258; CK1, 48 h | [5]; CA1, 24 h | [5]; CA1, 48 h | [6]; 24 h | [6]; 48 h | Candida tropicalis 156; 24 h | Candida tropicalis 156; 48 h | [7]; 24 h | [7]; 48 h | Escherichia coli CCM4517; 24 h | Escherichia coli CCM4517; 48 h | [8]; 24 h | [8]; 48 h | Absidia corymbifera 272; 24 h | Absidia corymbifera 272; 48 h | [9]; 24 h | [9]; 48 h | [10]; 24 h | [10]; 48 h | [11]; 24 h | [11]; 48 h | Candida krusei E28; CK2, 24 h | Candida krusei E28; CK2, 48 h | [12]; CA2, 24 h | [12]; CA2, 48 h | [13]; 24 h | [13]; 48 h

CCOCCOC(=O)[C@@H](C)OC(=O)C[n+]1ccn(C)c1 [KG161, R-3-methyl-1-[1-(ethoxyethoxycarbonyl)-1-methylmethoxycarbonylmethyl]imidazolium bromide]
>1000 µM: [1]; 72 h | [1]; 120 h | Candida glabrata 20/l; 24 h | Candida glabrata 20/l; 48 h | [2]; 24 h | [2]; 48 h | [3]; 24 h | [3]; 48 h | [4]; 24 h | [4]; 48 h | Candida krusei ATCC 6258; CK1, 24 h | Candida krusei ATCC 6258; CK1, 48 h | [5]; CA1, 24 h | [5]; CA1, 48 h | [6]; 24 h | [6]; 48 h | Candida tropicalis 156; 24 h | Candida tropicalis 156; 48 h | [7]; 24 h | [7]; 48 h | Escherichia coli CCM4517; 24 h | Escherichia coli CCM4517; 48 h | [8]; 24 h | [8]; 48 h | Absidia corymbifera 272; 24 h | Absidia corymbifera 272; 48 h | [9]; 24 h | [9]; 48 h | [10]; 24 h | [10]; 48 h | [11]; 24 h | [11]; 48 h | Candida krusei E28; CK2, 24 h | Candida krusei E28; CK2, 48 h | [12]; CA2, 24 h | [12]; CA2, 48 h | [13]; 24 h | [13]; 48 h

CCCCCCCCOS(=O)(=O)[O-].CCOCCOC(=O)C(C)OC(=O)Cn1cc[n+](C)c1 (stereo not drawn) [KG172, RS-3-methyl-1-[1-(ethoxyethoxycarbonyl)-1-methylmethoxycarbonylmethyl]imidazolium octyl sulphate]
>1000 µM: [1]; 72 h | [1]; 120 h | Candida glabrata 20/l; 24 h | Candida glabrata 20/l; 48 h | [2]; 24 h | [2]; 48 h | [3]; 24 h | [3]; 48 h | [4]; 24 h | [4]; 48 h | Candida krusei ATCC 6258; CK1, 24 h | Candida krusei ATCC 6258; CK1, 48 h | [5]; CA1, 24 h | [5]; CA1, 48 h | [6]; 24 h | [6]; 48 h | Candida tropicalis 156; 24 h | Candida tropicalis 156; 48 h | [7]; 24 h | [7]; 48 h | Escherichia coli CCM4517; 24 h | Escherichia coli CCM4517; 48 h | [8]; 24 h | [8]; 48 h | Absidia corymbifera 272; 24 h | Absidia corymbifera 272; 48 h | [9]; 24 h | [9]; 48 h | [10]; 24 h | [10]; 48 h | [11]; 24 h | [11]; 48 h | Candida krusei E28; CK2, 24 h | Candida krusei E28; CK2, 48 h | [12]; CA2, 24 h | [12]; CA2, 48 h | [13]; 24 h | [13]; 48 h
